{"source": "patent US11919965B2", "about": "“Methods of treating multiple myeloma with bispecific anti-BCMA x anti-CD3 antibodies” (Regeneron Pharmaceuticals, Inc., priority 2019, dated 2024)", "key": {"[1]": {"test_system": "Jurkat/NFATLuc.3C7 reporter cells with OPM-2 cells (BCMA positive)", "test": "Jurkat/NFATLuc reporter bioassay (T-cell activation)", "format": "cell-based, human", "description": "(§1) Activity of the anti-BCMA×anti-CD3 bispecific antibodies were assessed in a Jurkat/NFATLuc reporter bioassay utilizing several cell lines with varying levels of BCMA surface expression. The Jurkat cells were engineered to express an NFAT-luciferase reporter (Jurkat/NFATLuc.3C7), and 50,000 Jurkat reporter cells were combined with 50,000 BCMA positive (Daudi, MM1-S, NCI-H929, OPM-2, RPMI-8226, MOLP-8, or Raji) or BCMA negative (HEK293) cells in Thermo Nunclon delta 96 well white microwell plates (Thermo Scientific, Cat #136102) in 50 ul of assay media (RPMI media with 10% FBS and 1% P/S/G). Three-fold serial dilutions of the BCMA×CD3 bispecific antibodies (mAb25441D or mAb25442D), or a bivalent anti-BCMA antibody (mAb21581) were immediately added in 50 uL of assay buffer. The plates were gently agitated and incubated in a 37° C., 5% CO2 incubator for 4-6 hours. NFAT-Luciferase activity was determined using Promega One-Glo (Cat #E6130) and a Perkin Elmer Envision plate reader. RLU were plotted in GraphPad Prism using a four-parameter logistic equation over a 12-point response curve to calculate EC50 values. The no antibody treatment condition for each dose-response curve is also included in the analysis as a continuation of the three-fold serial dilution and is represented as the lowest dose. The signal to noise (S:N) is determined by taking the ratio of the highest RLU on the curve to the lowest."}, "[2]": {"test_system": "Jurkat/NFATLuc.3C7 reporter cells with NCI-H929 cells (BCMA positive)", "test": "Jurkat/NFATLuc reporter bioassay (T-cell activation)", "format": "cell-based, human", "description": "as §1"}, "[3]": {"test_system": "primary cynomolgus monkey CD138+ plasma cells", "test": "Autologous T cell-mediated killing of plasma cells and T cell activation (% CD25 upregulation)", "format": "cell-based", "description": "(§2) The specific killing of enriched CD138^+ human or cynomolgus monkey plasma cells by unstimulated autologous T cells was assessed by flow cytometry. Human or cynomolgus bone marrow aspirates and blood were provided within 24 hours of harvest. CD138^+ plasma cells were enriched from bone marrow by positive selection using the EasySep Human CD138^+ Positive Selection kit according to the manufacturer's instructions. PBMC from whole blood were isolated by density separation. PBMC were labeled with 1 μM of VYBRANT™ CFDA-SE fluorescent tracking dye. […] At the end of the culture, surviving CD138^+ plasma cells were analyzed by flow cytometry, utilizing fixable LIVE/DEAD dye and plasma cell specific cell surface markers. Percent viability was normalized to control condition (plasma cells in the presence of PBMC only). T cell activation was assessed by flow cytometry. Activation is reported as the percentage of CD2^+/CD4^+ or CD2^+/CD8^+/CD16^− T cells expressing CD25. Percent T cell activation was normalized to control condition (plasma cells in the presence of PBMC only)."}, "[4]": {"test_system": "primary human CD138+ plasma cells", "test": "Autologous T cell-mediated killing of plasma cells and T cell activation (% CD25 upregulation)", "format": "cell-based", "conditions": "for EC50: read-out: T Cell Activation (% CD25 Upregulation) CD8+ T cells EC50", "description": "as §2"}, "[5]": {"test_system": "BCMA+ MOLP-8-luciferase tumors", "test": "Xenogenic tumor model, i.v. MOLP-8-luciferase in PBMC-engrafted NSG mice, bioluminescence (Example 14)", "format": "in vivo, mouse", "conditions": "4 mg/kg", "description": "To determine the in vivo efficacy of anti-BCMA×anti-CD3 bispecific antibodies (Abs), a xenogenic tumor study was performed. On day −11, immunodeficient NOD.Cg-Prkdc^scidII2rg^tm1Wjl/SzJ (NSG) mice were intraperitoneally injected with 4×10^6 human peripheral blood mononuclear cells (PBMC) from a normal, healthy donor. On day 0, the mice were intravenously administered 2×10^6 BCMA^+ MOLP-8 human multiple myeloma tumor cells that were engineered to also express firefly luciferase (MOLP-8-luciferase cells). […] The mice were administered these Abs twice more on days 3 and 7, for a total of three doses. Tumor growth was assessed over 48 days by measuring tumor bioluminescence (BLI) in anesthetized animals. As a positive control, a group of mice (n=5) was given only MOLP-8-luciferase cells, but not PBMC or antibody.\nImplantation and measurement of xenogenic tumors: On day −11, immunodeficient NOD.Cg-Prkdc^scidII2rg^tm1Wjl/SzJ (NSG) mice were intraperitoneally injected with 5×10^6 human PBMC from a normal, healthy donor. On day 0, the mice were intravenously administered 2×10^6 BCMA^+ MOLP-8-luciferase cells. […] The mice were administered these Abs twice more on days 3 and 7, for a total of three doses. Tumor growth was assessed over 48 days by measuring tumor BLI in anesthetized animals. As a positive control, a group of mice (n=5) was given only MOLP-8-luciferase cells, but not PBMC or antibody.\nMeasurement of xenogenic tumor growth: BLI imaging was used to measure tumor burden. Mice were injected IP with 150 mg/kg of the luciferase substrate D-luciferin suspended in PBS. Five minutes after this injection, BLI imaging of the mice was performed under isoflurane anesthesia using the Xenogen IVIS system. Image acquisition was carried out with the field of view at D, subject height of 1.5 cm, and medium binning level with automatic exposure time determined by the Living Image Software. BLI signals were extracted using Living Image software: regions of interest were drawn around each tumor mass and photon intensities were recorded as p/s/cm2/sr."}, "[6]": {"test_system": "Jurkat/NFATLuc.3C7 reporter cells with MOLP-8 cells (BCMA positive)", "test": "Jurkat/NFATLuc reporter bioassay (T-cell activation)", "format": "cell-based, human", "description": "as §1"}, "[7]": {"test_system": "Jurkat/NFATLuc.3C7 reporter cells with Daudi cells (BCMA positive)", "test": "Jurkat/NFATLuc reporter bioassay (T-cell activation)", "format": "cell-based, human", "description": "as §1"}}, "note": "Read-outs that look alike come from different tables or passages of the source.", "data": [{"substance": "REGN5458: anti-BCMA×anti-CD3 bispecific antibody: mAb21581 BCMA heavy chain, mAb7221G CD3 heavy chain and common light chain; SEQ ID NOs 126, 127, 129", "values": [{"measurement": "S:N (highest RLU to lowest)", "setting": "[1]", "result": 8}, {"measurement": "S:N (highest RLU to lowest)", "setting": "[2]", "result": 39}, {"measurement": "T Cell Activation (% CD25 Upregulation) CD8+ T cells % Activation", "setting": "[3]; Cynomolgus Monkey Donor 1 plasma cells, autologous T cells, maximum", "result": 12, "unit": "%"}, {"measurement": "EC50", "setting": "[3]; Cynomolgus Monkey Donor 1 plasma cells, autologous T cells, read-out: T Cell Activation (% CD25 Upregulation) CD8+ T cells EC50", "result": 22.4, "unit": "nM"}, {"measurement": "T Cell Activation (% CD25 Upregulation) CD4+ T cells % Activation", "setting": "[3]; Cynomolgus Monkey Donor 2 plasma cells, autologous T cells, maximum", "result": 16, "unit": "%"}, {"measurement": "EC50", "setting": "[3]; Cynomolgus Monkey Donor 2 plasma cells, autologous T cells, read-out: T Cell Activation (% CD25 Upregulation) CD4+ T cells EC50", "result": "~18.1", "unit": "nM"}, {"measurement": "maximum percent T cell activation, CD8+ T cells", "setting": "[3]; donor 1", "result": 12, "unit": "%"}, {"measurement": "EC50", "setting": "[3]; donor 1, read-out: EC50, CD4+ T cell activation", "result": 28.1, "unit": "nM"}, {"measurement": "EC50", "setting": "[3]; donor 1, read-out: EC50, CD8+ T cell activation", "result": 22.4, "unit": "nM"}, {"measurement": "maximum percent T cell activation, CD4+ T cells", "setting": "[3]; donor 2", "result": 16, "unit": "%"}, {"measurement": "EC50", "setting": "[3]; donor 2, read-out: EC50, CD4+ T cell activation", "result": 18.1, "unit": "nM"}, {"measurement": "EC50", "setting": "[3]; donor 2, read-out: EC50, CD8+ T cell activation", "result": 76.7, "unit": "nM"}, {"measurement": "EC50", "setting": "[4]; Human Donor 1 plasma cells, autologous primary human T cells", "result": 0.214, "unit": "nM"}, {"measurement": "T Cell Activation (% CD25 Upregulation) CD8+ T cells % Activation", "setting": "[4]; Human Donor 2 plasma cells, autologous primary human T cells, maximum", "result": 36, "unit": "%"}, {"measurement": "EC50", "setting": "[4]; Human Donor 2 plasma cells, autologous primary human T cells", "result": 0.86, "unit": "nM"}, {"measurement": "maximum percent CD8+ T cell activation", "setting": "[4]; donor 2", "result": 36, "unit": "%"}, {"measurement": "Radiance [p/s/cm2^2/sr] 8 days post-implantation (mean ± SEM)", "setting": "[5]", "result": "5.66E+05 ± 1.97E+04", "unit": "p/s/cm2^2/sr"}, {"measurement": "Radiance [p/s/cm2^2/sr] 22 days post-implantation (mean ± SEM)", "setting": "[5]", "result": "1.08E+06 ± 1.71E+05", "unit": "p/s/cm2^2/sr"}, {"measurement": "Radiance [p/s/cm2^2/sr] 24 days post-implantation (mean ± SEM)", "setting": "[5]", "result": "1.02E+06 ± 1.99E+05", "unit": "p/s/cm2^2/sr"}, {"measurement": "Radiance [p/s/cm2^2/sr] 28 days post-implantation (mean ± SEM)", "setting": "[5]", "result": "3.56E+06 ± 6.34E+05", "unit": "p/s/cm2^2/sr"}, {"measurement": "Radiance [p/s/cm2^2/sr] 30 days post-implantation (mean ± SEM)", "setting": "[5]", "result": "6.92E+06 ± 1.40E+06", "unit": "p/s/cm2^2/sr"}, {"measurement": "Radiance [p/s/cm2^2/sr] 34 days post-implantation (mean ± SEM)", "setting": "[5]", "result": "2.65E+07 ± 1.36E+07", "unit": "p/s/cm2^2/sr"}, {"measurement": "Radiance [p/s/cm2^2/sr] 37 days post-implantation (mean ± SEM)", "setting": "[5]", "result": "4.52E+07 ± 1.40E+07", "unit": "p/s/cm2^2/sr"}, {"measurement": "tumor growth", "setting": "[5]; three doses", "result": "delayed the growth"}]}, {"substance": "REGN5459: anti-BCMA×anti-CD3 bispecific antibody: mAb21581 BCMA heavy chain, mAb7221G20 CD3 heavy chain and common light chain; SEQ ID NOs 126, 128, 129", "values": [{"measurement": "S:N (highest RLU to lowest)", "setting": "[6]", "result": 31}, {"measurement": "S:N (highest RLU to lowest)", "setting": "[7]", "result": 25}]}]}
